Read-outs that look alike come from different tables or passages of the source. Numbered stars: 1 amine (or outer) side, 2 acyl side, 3 side chain; on linkers, the order of the positions; unused ones are H or OH. Square brackets hold non-standard residues; d marks the D form. Side chains are listed from the residue outwards. Ends that are not written are not given here. γGlu = O=C(O)[C@H](CCC(=O)[*:2])N[*:1]; C16 acyl = 16 carbon fatty acyl group; Aib = CC(C)(N)C(=O)O
What was measured:
glucagon receptor = glucagon receptor (Homo sapiens, UniProt P47871); assay: cAMP induction at the glucagon receptor (agonist activity), luciferase reporter assay in HEK293 cells; format: cell-based; parameters: expressed in transfected cells; host or cells: HEK293; conditions: for EC50: read-out: GR EC50
Description: (§1) HEK293 cells co-transfected with the receptor and luciferase gene linked to a cAMP responsive element were employed for the bioassay.
(§2) All EC50s and IC50s are reported in the following examples in nM, unless indicated otherwise.

[1] = format: in vivo, C57Bl/6 mice; conditions: 30 nmol/kg subcutaneously daily for one week
[2] = Example 10: MT-263 under varied administration regimen in diet-induced obesity mice, 6 day study; format: in vivo, Diet-induced obesity (DIO) mice; conditions: injected on a daily basis (10 nmol/kg), compared with every 2 or 3 days
Description: Diet-induced obesity (DIO) mice (N=8, 10 mice per group) were injected during the course of the 6 day study as follows: […]

GLP-1 receptor = molecular target: T1, GLP-1 receptor (Homo sapiens, UniProt P43220); assay: cAMP induction at the GLP-1 receptor (agonist activity), firefly luciferase reporter assay in HEK293 cells; format: cell-based
T1 construct: expressed in transfected cells; host or cells: HEK293
Description: as §1, §2

GIP receptor = molecular target: T2, GIP receptor (Homo sapiens, UniProt P48546); assay: cAMP induction at the GIP receptor (agonist activity), luciferase reporter assay in HEK293 cells; format: cell-based; conditions: for EC50: read-out: GIPR EC50
T2 construct: expressed in transfected cells; host or cells: HEK293
T2 sequence (P48546 22-466): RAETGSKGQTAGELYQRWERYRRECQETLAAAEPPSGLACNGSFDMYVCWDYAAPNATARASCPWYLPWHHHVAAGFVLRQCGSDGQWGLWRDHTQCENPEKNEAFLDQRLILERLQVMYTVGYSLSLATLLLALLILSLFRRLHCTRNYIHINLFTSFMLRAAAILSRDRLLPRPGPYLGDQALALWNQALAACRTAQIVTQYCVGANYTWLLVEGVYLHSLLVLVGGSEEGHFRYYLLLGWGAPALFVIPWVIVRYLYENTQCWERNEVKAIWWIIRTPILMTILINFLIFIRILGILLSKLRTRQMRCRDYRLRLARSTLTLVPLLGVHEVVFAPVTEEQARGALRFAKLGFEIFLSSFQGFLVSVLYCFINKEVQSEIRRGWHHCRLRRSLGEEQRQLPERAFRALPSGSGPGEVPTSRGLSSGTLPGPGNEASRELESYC
Description: as §1, §2

[3] = Example 8: acylated peptides injected subcutaneously daily for one week into DIO mice; format: in vivo, DIO mice (C57Bl/6 WT); conditions: 10 nmol/kg subcutaneously daily for one week
Description: Different doses of acylated peptides comprising a Lys at position 16 and an AIB at position 20 were tested in vivo. […] The mice had been on a high fat diet diet for ˜8 months. Body weight and food intake were measured on days 0, 1, 3, 5, and 7, whereas blood glucose levels were measured on Days 0 and 7 of the experiment. Each test group and control group consisted of 8 mice.

[4] = Table 7, relative to the native ligand of the receptor

T1 sequence (P43220 24-463): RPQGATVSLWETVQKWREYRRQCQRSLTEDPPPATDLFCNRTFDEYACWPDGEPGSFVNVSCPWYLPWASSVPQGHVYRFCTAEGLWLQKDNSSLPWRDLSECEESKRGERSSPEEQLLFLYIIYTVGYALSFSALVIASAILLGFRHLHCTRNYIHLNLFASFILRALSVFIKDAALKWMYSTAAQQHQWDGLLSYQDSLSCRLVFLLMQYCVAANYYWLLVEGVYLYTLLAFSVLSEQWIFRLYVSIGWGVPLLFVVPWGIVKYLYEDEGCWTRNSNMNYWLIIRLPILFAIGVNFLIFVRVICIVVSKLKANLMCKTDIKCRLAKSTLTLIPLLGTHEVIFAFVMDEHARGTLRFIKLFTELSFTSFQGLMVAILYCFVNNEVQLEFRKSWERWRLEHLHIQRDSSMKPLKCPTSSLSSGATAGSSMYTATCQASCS
Chain of glucagon receptor (P47871 26-477): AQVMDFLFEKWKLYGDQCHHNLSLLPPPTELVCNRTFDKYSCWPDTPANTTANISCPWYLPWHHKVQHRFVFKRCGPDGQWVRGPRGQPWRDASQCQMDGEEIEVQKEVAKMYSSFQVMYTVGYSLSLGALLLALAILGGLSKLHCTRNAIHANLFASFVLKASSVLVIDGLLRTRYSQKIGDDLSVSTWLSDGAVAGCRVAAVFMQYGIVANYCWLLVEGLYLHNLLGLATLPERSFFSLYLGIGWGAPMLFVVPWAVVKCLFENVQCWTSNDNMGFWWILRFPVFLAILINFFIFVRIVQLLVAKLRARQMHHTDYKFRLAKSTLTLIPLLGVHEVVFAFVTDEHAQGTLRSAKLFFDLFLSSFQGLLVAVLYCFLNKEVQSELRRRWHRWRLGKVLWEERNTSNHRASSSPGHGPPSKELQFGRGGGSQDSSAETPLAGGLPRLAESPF

Compound	EC50 (glucagon receptor; Table 3) [nM]	EC50 (glucagon receptor; Table 4) [nM]	change in blood glucose levels over the course of the 7-day study [1]	weight loss compared with the Exendin-4-like positive control peptide [1]	weight loss over the course of the 7-day study [1]	decrease in blood glucose levels [2]	EC50 (GLP-1 receptor; Table 3, read-out: GLP-1R EC50) [nM]	EC50 (GIP receptor; Table 3) [nM]	EC50 (GIP receptor; Table 4) [nM]	% Relative Activity at GR (glucagon receptor; [4]) [%]	total change in body weight (%) [3]	% Relative Activity GLP-1R (GLP-1 receptor; [4]) [%]	% Relative Activity at GIPR (GIP receptor; [4]) [%]	% Relative Activity at GR (glucagon receptor; Table 8) [%]	% Relative Activity GLP-1R (GLP-1 receptor; Table 8) [%]	% Relative Activity at GIPR (GIP receptor; Table 8) [%]
CC[C@H](C)[C@H](NC(=O)[C@H](CO)NC(=O)[C@H](Cc1ccc(O)cc1)NC(=O)[C@H](CC(=O)O)NC(=O)[C@H](CO)NC(=O)[C@@H](NC(=O)[C@H](Cc1ccccc1)NC(=O)[C@@H](NC(=O)CNC(=O)[C@H](CCC(=O)O)NC(=O)C(C)(C)NC(=O)[C@@H](N)Cc1ccc(O)cc1)[C@@H](C)O)[C@@H](C)O)C(=O)N[C@@H](Cc1ccc(O)cc1)C(=O)N[C@@H](CC(C)C)C(=O)N[C@@H](CC(=O)O)C(=O)N[C@@H](CCCCN)C(=O)N[C@@H](CCC(N)=O)C(=O)N[C@@H](C)C(=O)N[C@@H](C)C(=O)NC(C)(C)C(=O)N[C@@H](CCC(=O)O)C(=O)N[C@@H](Cc1ccccc1)C(=O)N[C@H](C(=O)N[C@@H](CC(N)=O)C(=O)N[C@@H](Cc1c[nH]c2ccccc12)C(=O)N[C@@H](CC(C)C)C(=O)N[C@@H](CC(C)C)C(=O)N[C@@H](C)C(=O)NCC(=O)NCC(=O)N1CCC[C@H]1C(=O)N[C@@H](CO)C(=O)N[C@@H](CO)C(=O)NCC(=O)N[C@@H](C)C(=O)N1CCC[C@H]1C(=O)N1CCC[C@H]1C(=O)N1CCC[C@H]1C(=O)N[C@@H](CO)C(=O)N[C@@H](CCCCN)C(N)=O)C(C)C [mt-263, Y1Aib2E3I12K16Q17A18Aib20E21N24-LAG27-29-CEX-K]	4.04	3.14	greatest change in blood glucose levels	substantially greater than the Exendin-4-like positive control peptide	significant weight loss	biggest decrease in blood glucose levels	0.01	0.0054	0.0033	–	–	–	–	–	–	–
Q3I7K16AIB20K10(rErE-C16) (Y[Aib]QGTFISDK([γGlu-γGlu-C16 acyl])SIYLDKQAA[Aib]EFVNWLLAGGPSSGAPPPS-NH2) [MT-385]	–	–	–	–	–	–	–	–	–	239	lower change in body weight	3	715	–	–	–
Y1Aib2I12K16Q17A18Aib20E21N24-LAG27-29-CEX-K (YXQGTFTSDYSIYLDKQAAXEFVNWLLAGGPSSGAPPPSK; HELM PEPTIDE1{Y.[Aib].Q.G.T.F.T.S.D.Y.S.I.Y.L.D.K.Q.A.A.[Aib].E.F.V.N.W.L.L.A.G.G.P.S.S.G.A.P.P.P.S.K.[am]}$$$$V2.0; N-terminus assumed; SMILES CC[C@H](C)[C@H](NC(=O)[C@H](CO)NC(=O)[C@H](Cc1ccc(O)cc1)NC(=O)[C@H](CC(=O)O)NC(=O)[C@H](CO)NC(=O)[C@@H](NC(=O)[C@H](Cc1ccccc1)NC(=O)[C@@H](NC(=O)CNC(=O)[C@H](CCC(N)=O)NC(=O)C(C)(C)NC(=O)[C@@H](N)Cc1ccc(O)cc1)[C@@H](C)O)[C@@H](C)O)C(=O)N[C@@H](Cc1ccc(O)cc1)C(=O)N[C@@H](CC(C)C)C(=O)N[C@@H](CC(=O)O)C(=O)N[C@@H](CCCCN)C(=O)N[C@@H](CCC(N)=O)C(=O)N[C@@H](C)C(=O)N[C@@H](C)C(=O)NC(C)(C)C(=O)N[C@@H](CCC(=O)O)C(=O)N[C@@H](Cc1ccccc1)C(=O)N[C@H](C(=O)N[C@@H](CC(N)=O)C(=O)N[C@@H](Cc1c[nH]c2ccccc12)C(=O)N[C@@H](CC(C)C)C(=O)N[C@@H](CC(C)C)C(=O)N[C@@H](C)C(=O)NCC(=O)NCC(=O)N1CCC[C@H]1C(=O)N[C@@H](CO)C(=O)N[C@@H](CO)C(=O)NCC(=O)N[C@@H](C)C(=O)N1CCC[C@H]1C(=O)N1CCC[C@H]1C(=O)N1CCC[C@H]1C(=O)N[C@@H](CO)C(=O)N[C@@H](CCCCN)C(N)=O)C(C)C) [MT-280]	–	–	significant decrease in blood glucose levels	–	–	–	–	–	–	–	–	–	–	60	225	154
